Source: publication PMC12064818, “A general assay platform to study protein pharmacology using ligand-dependent structural dynamics” (Nature Communications, 2025)

Target: T1, FLuc-C-HiBiT (Photinus pyralis, UniProt P08659)
T1 construct: firefly luciferase with C-terminal HiBiT tag, E. coli expressed
Assay: biochemical
Conditions: enzyme activity, 10 uM ATP; read-out: IC50 or SDR50 (mM) / FLuc E

T1 sequence (P08659 whole entry, looked up): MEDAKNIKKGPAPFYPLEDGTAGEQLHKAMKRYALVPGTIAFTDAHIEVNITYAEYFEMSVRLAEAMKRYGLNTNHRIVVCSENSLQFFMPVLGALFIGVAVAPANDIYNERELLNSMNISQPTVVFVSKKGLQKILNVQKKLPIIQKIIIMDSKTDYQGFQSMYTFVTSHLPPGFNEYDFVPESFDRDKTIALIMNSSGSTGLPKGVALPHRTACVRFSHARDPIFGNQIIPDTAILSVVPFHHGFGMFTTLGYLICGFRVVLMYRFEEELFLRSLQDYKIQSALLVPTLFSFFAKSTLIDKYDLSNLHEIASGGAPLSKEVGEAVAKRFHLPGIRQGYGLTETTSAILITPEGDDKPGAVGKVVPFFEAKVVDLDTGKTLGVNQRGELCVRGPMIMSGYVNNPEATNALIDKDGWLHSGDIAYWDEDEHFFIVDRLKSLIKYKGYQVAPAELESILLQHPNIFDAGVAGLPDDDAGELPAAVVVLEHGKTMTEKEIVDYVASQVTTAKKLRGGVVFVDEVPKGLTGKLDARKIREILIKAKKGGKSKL

Row | Compound | IC50
1 | O=C(Nc1cccc(-c2ccc(N3CCOCC3)nn2)c1)Nc1ccccc1F [NCGC00427598-01] | 0.00279 mM
2 | COc1cccc(CNC(=O)Nc2cccc(-c3ccc(N4CCOCC4)nn3)c2)c1 [NCGC00427600-01] | 0.00279 mM
3 | O=C(NCc1ccc(F)cc1)Nc1cccc(-c2ccc(N3CCOCC3)nn2)c1 [NCGC00427604-01] | 0.00176 mM
4 | CSc1cccc(NC(=O)Nc2cccc(-c3ccc(N4CCOCC4)nn3)c2)c1 [NCGC00427606-01] | 0.00157 mM
5 | COc1ccc(CNC(=O)Nc2cccc(-c3ccc(N4CCOCC4)nn3)c2)cc1 [NCGC00427608-01] | 0.00197 mM
6 | COc1ccc(NC(=O)Nc2cccc(-c3ccc(N4CCOCC4)nn3)c2)cc1Cl [NCGC00427610-01] | 0.00124 mM
7 | O=C(Nc1cccc(-c2ccc(N3CCOCC3)nn2)c1)Nc1ccc2c(c1)CCC2 [NCGC00427612-01] | 0.00279 mM
8 | CCc1cccc(NC(=O)Nc2cccc(-c3ccc(N4CCOCC4)nn3)c2)c1 [NCGC00427616-01] | 0.00624 mM
9 | O=C(Nc1cccc(-c2ccc(N3CCOCC3)nn2)c1)Nc1cccc(Cl)c1F [NCGC00427620-01] | 0.00556 mM
10 | COc1ccc(NC(=O)Nc2cccc(-c3ccc(N4CCOCC4)nn3)c2)cc1F [NCGC00427622-01] | 0.000881 mM
11 | O=C(Nc1cc(F)cc(F)c1)Nc1cccc(-c2ccc(N3CCOCC3)nn2)c1 [NCGC00427624-01] | 0.00313 mM
12 | COc1ccc(NC(=O)Nc2cccc(-c3ccc(N4CCCCC4)nn3)c2)c(OC)c1 [NCGC00427636-01] | 0.000989 mM
13 | COc1ccc(C)cc1NC(=O)Nc1cccc(-c2ccc(N3CCCCC3)nn2)c1 [NCGC00427638-01] | 0.00111 mM
14 | O=C(Nc1cccc(F)c1)Nc1cccc(-c2ccc(N3CCCCC3)nn2)c1 [NCGC00427644-01] | 0.000989 mM
15 | COc1ccc(CNC(=O)Nc2cccc(-c3ccc(N4CCCCC4)nn3)c2)cc1 [NCGC00427646-01] | 0.000495 mM
16 | Cc1nnc(CN(C)c2ccc(-c3nc(-c4cccc(Cl)c4)no3)cn2)o1 [NCGC00427683-01] | 0.00495 mM
17 | O=C(c1ccc2oc(-c3cccc(F)c3)nc2c1)N1CCCCC1CCO (centres unmarked) [NCGC00427691-01] | 0.014 mM
18 | COc1ccc(OCc2cc(C(=O)N3C[C@H]4CC[C@H]3C4)n[nH]2)c(Cl)c1 [NCGC00428264-01] | > 0.03 mM
19 | O=C1OCCN1CCNc1ccc(-c2nc(-c3ccccc3F)no2)cn1 [NCGC00428584-01] | 0.0124 mM
20 | Cc1ccccc1-c1noc(-c2ccc(NC(C)c3cnn(C)c3)nc2)n1 (centres unmarked) [NCGC00428942-01] | 0.000989 mM
21 | O=C(Nc1ccccc1)C1CCN(C(=O)N2CC3CC(C2)[C@H]2CCCC(=O)N2C3)CC1 (some centres unmarked) [NCGC00428953-01] | > 0.03 mM
22 | Cc1nccn1CCN(C)c1ccc(-c2nc(COc3ccccc3)no2)cn1 [NCGC00428976-01] | 0.00989 mM

Row | Compound | IC50
23 | Cc1c(-c2ccccc2F)[nH]c2ccc(CNC(=O)C3CCCN(C(N)=O)C3)cc12 (centres unmarked) [NCGC00429038-01] | 0.00556 mM
24 | CN(CCc1cn[nH]c1)c1ccc(-c2nc(-c3ccccc3F)no2)cn1 [NCGC00429241-01] | 0.00313 mM
25 | C=CCCC(=O)N1CCOc2c(O)cc(-c3nc4ccccc4s3)cc2C1 [NCGC00429409-01] | > 0.03 mM
26 | CCC(=O)Nc1ccc2nnc(-c3ccc(C(=O)Nc4ccc5c(c4)OCCO5)cc3)n2c1 [NCGC00429833-01] | 0.00881 mM
27 | COc1ccc2cc(C3CN(C(=O)c4cccc(CO)c4)CCO3)ccc2c1 (centres unmarked) [NCGC00430133-01] | 0.00248 mM
28 | COc1ccc(NC(=O)N2CCc3c(C(=O)Nc4ccc5c(c4)OCO5)cccc32)cc1 [NCGC00430172-01] | 0.000881 mM
29 | O=C(Nc1ccc2c(c1)OCO2)c1cccc2c1CCN2C(=O)Nc1ccc(F)cc1 [NCGC00430184-01] | 0.000197 mM
30 | CC(=O)N1CCc2ccc(C(=O)NC3CCCCCC3)cc21 [NCGC00430256-01] | 0.00624 mM
31 | CCC(=O)N1CCc2ccc(C(=O)NC3CCCCC3)cc21 [NCGC00430262-01] | 0.0111 mM
32 | Cc1nc(CN2CCOc3c(O)cc(-c4nc5ccccc5s4)cc3C2)no1 [NCGC00430265-01] | > 0.03 mM
33 | COc1ccc(C(=O)N2CCc3ccc(C(=O)Nc4ccc5c(c4)OCCO5)cc32)cc1 [NCGC00430278-01] | 0.00556 mM
34 | COc1cccc(CN2CCc3c(cc(C(=O)Nc4cc(C)ccc4OC)n3C)C2)c1 [NCGC00430592-01] | > 0.03 mM
35 | COc1ccc2cc(C3CN(C(=O)CCc4n[nH]c(C)n4)CCO3)ccc2c1 (centres unmarked) [NCGC00430617-01] | 0.00989 mM
36 | COc1ccc2cc(C3CN(C(=O)CNC(=O)C(C)C)CCO3)ccc2c1 (centres unmarked) [NCGC00430625-01] | 0.0124 mM
37 | Cn1c(C(=O)Nc2ccc3c(c2)OCO3)cc2c1CCN(Cc1cccc(F)c1)C2 [NCGC00430636-01] | > 0.03 mM
38 | Cc1ccc(NC(=O)Nc2ccccc2)c(=O)n1CC(=O)NCC1CCCO1 (centres unmarked) [NCGC00430764-01] | 0.0111 mM
39 | CCN1CCN(C(=O)Cn2c(C)ccc(NC(=O)Nc3ccc(C)cc3)c2=O)CC1 [NCGC00430774-01] | 0.00495 mM
40 | COc1ccccc1NC(=O)Cn1c(C)ccc(NC(=O)Nc2ccc(C)cc2)c1=O [NCGC00430778-01] | 0.0007 mM
41 | CCC(C)NC(=O)Cn1c(C)ccc(NC(=O)Nc2ccc(C)cc2)c1=O (centres unmarked) [NCGC00430780-01] | 0.00124 mM
42 | Cc1ccc(NC(=O)Nc2ccc(C)n(CC(=O)NC(C)(C)C)c2=O)cc1 [NCGC00430790-01] | 0.00394 mM
43 | Cc1ccc(NC(=O)Nc2ccc(C)n(CC(=O)NC3CCCC3)c2=O)cc1 [NCGC00430792-01] | 0.0007 mM
44 | Cc1ccc(NC(=O)Nc2ccc(C)n(CC(=O)NCCC(C)C)c2=O)cc1 [NCGC00430794-01] | 0.00111 mM

Row | Compound | IC50
45 | Cc1ccc(NC(=O)Nc2ccc(C)n(CC(=O)NCC(C)C)c2=O)cc1 [NCGC00430796-01] | 0.00111 mM
46 | Cc1ccc(NC(=O)Nc2ccc(C)n(CC(=O)N3CCC(C)CC3)c2=O)cc1 [NCGC00430800-01] | 0.00394 mM
47 | Cc1ccc(NC(=O)Nc2ccc(C)n(CC(=O)NC(C)c3cccnc3)c2=O)cc1 (centres unmarked) [NCGC00430804-01] | 0.00157 mM
48 | Cc1ccc(NC(=O)Nc2ccc(C)n(CC(=O)NCCN3CCCC3)c2=O)cc1 [NCGC00430806-01] | 0.0111 mM
49 | CC(C)n1cc(-c2cc(C(=O)N3CCC(C)(C)C3)c3ccc(F)cc3n2)cn1 [NCGC00430819-01] | 0.00495 mM
50 | CCCNC(=O)Cn1c(C)ccc(NC(=O)Nc2ccc(OC)cc2)c1=O [NCGC00430826-01] | 0.00624 mM
51 | COc1ccc(NC(=O)Nc2ccc(C)n(CC(=O)N3CCCCCC3)c2=O)cc1 [NCGC00430834-01] | 0.00989 mM
52 | COc1ccc(NC(=O)Nc2ccc(C)n(CC(=O)NCC(C)C)c2=O)cc1 [NCGC00430836-01] | 0.00351 mM
53 | COc1ccc(NC(=O)Nc2ccc(C)n(CC(=O)N3CCCC(C)C3)c2=O)cc1 (centres unmarked) [NCGC00430838-01] | 0.00785 mM
54 | COc1ccc2cc(C3CN(C(=O)Cc4ccc(O)cc4)CCO3)ccc2c1 (centres unmarked) [NCGC00430869-01] | 0.00989 mM
55 | CCn1ncc(NC(=O)Cn2ncc3cc(-c4ccc(C)cc4F)ccc32)n1 [NCGC00430893-01] | 0.0124 mM
56 | CCN(CC)C(=O)N1CCOC(c2ccc3cc(OC)ccc3c2)C1 (centres unmarked) [NCGC00431059-01] | 0.00556 mM
57 | O=C(c1n[nH]cc1Cl)N1CCOC(Cc2cccc(C(F)(F)F)c2)C1 (centres unmarked) [NCGC00431816-01] | > 0.03 mM
58 | CC(C)(C)n1cc(-c2cc(C(=O)N3C[C@H]4CC[C@H]3C4)c3ccccc3n2)cn1 [NCGC00432050-01] | 0.007 mM
59 | COc1ccc(-n2cc(C3=CCN(CCN4CCOCC4)CC3)cn2)cc1 [NCGC00432106-01] | 0.00989 mM
60 | Nc1ccc(C(=O)N2CCCn3nc(C(=O)Nc4ccccc4)cc3C2)cn1 [NCGC00432306-01] | 0.0111 mM
61 | COc1cc(NC(=O)c2ccc(-c3ncn[nH]3)cc2)ccc1NC(=O)C(C)(C)C [NCGC00432557-01] | 0.0124 mM
62 | O=C(O)C1(CCc2ccccc2)CCCN(c2ncnc3[nH]cnc23)C1 (centres unmarked) [NCGC00432626-01] | > 0.03 mM
63 | CCn1cc(-c2ccc(F)cc2)cc1C(=O)O [NCGC00432651-01] | > 0.03 mM
64 | CCn1cc(-c2ccc(Cl)cc2)cc1C(=O)O [NCGC00432653-01] | > 0.03 mM
65 | CCn1cc(-c2ccc(C)cc2)cc1C(=O)O [NCGC00432661-01] | > 0.03 mM
66 | Cn1cc(-c2ccc(Cl)cc2)cc1C(=O)O [NCGC00432667-01] | > 0.03 mM

Row | Compound | IC50
67 | Cc1ccc(-c2cc(C(=O)O)n(C)c2)cc1 [NCGC00432669-01] | 0.00989 mM
68 | CCn1cc(-c2ccc(OC)cc2)cc1C(=O)O [NCGC00432677-01] | 0.014 mM
69 | O=C(O)c1ccc(-c2ccc(N3CCCCCC3)nc2)cc1 [NCGC00432679-01] | 0.00248 mM
70 | O=C(O)c1ccc(-c2nnc3ccc(NC(=O)C4CCC4)cn23)cc1 [NCGC00432681-01] | 0.0111 mM
71 | CN1CCN(c2ccc(-c3cccc(N)c3)nn2)CC1 [NCGC00432705-01] | 0.00624 mM
72 | CCN1CCN(c2ccc(-c3cccc(N)c3)nn2)CC1 [NCGC00432707-01] | 0.00989 mM
73 | Nc1cccc(-c2ccc(N3CCCCC3)nn2)c1 [NCGC00432709-01] | 0.000556 mM
74 | Cc1ccc(N2CCN(c3nc(C(=O)O)cs3)CC2)cc1 [NCGC00432723-01] | 0.00197 mM
75 | COc1ccc(NC(=O)Nc2ccc(C)n(CC(=O)O)c2=O)cc1 [NCGC00432735-01] | 0.00989 mM
76 | COc1ccc2cc(C3CN(C(=O)c4cccc(CO)n4)CCO3)ccc2c1 (centres unmarked) [NCGC00432736-01] | 0.0111 mM
77 | Cc1ccc(Cn2cc(-c3ccncc3)cc2C(=O)O)cc1 [NCGC00432741-01] | > 0.03 mM
78 | O=C(O)C1CCc2nc(N3CCN(C(=O)C4CCC4)CC3)sc2C1 (centres unmarked) [NCGC00432759-01] | 0.00881 mM
79 | CCC(=O)N1CCN(c2nc3c(s2)CC(C(=O)O)CC3)CC1 (centres unmarked) [NCGC00432761-01] | 0.0111 mM
80 | CC1CCN(C(=O)c2cc3c(s2)CCC(C(=O)O)C3)CC1 (centres unmarked) [NCGC00432771-01] | 0.014 mM
81 | O=C(O)CCC1CCN(c2cc(NC3CC3)ncn2)CC1 [NCGC00432803-01] | 0.00313 mM
82 | CCCNc1cc(N2CCC(CCC(=O)O)CC2)ncn1 [NCGC00432805-01] | 0.00785 mM
83 | CCNc1cc(N2CCC(CCC(=O)O)CC2)ncn1 [NCGC00432807-01] | 0.00556 mM
84 | CCN(CC)c1cc(CCC(=O)O)ccn1 [NCGC00432823-01] | 0.0014 mM
85 | Cc1cc(NC(=O)c2ccc(CN3CC[C@H](O)C3)cc2)ccc1F [NCGC00432832-01] | 0.00197 mM
86 | O=C(Nc1cnc(-c2ccccc2)nc1)C1CCCCC1 [NCGC00432861-01] | 0.00197 mM
